This note sets out measurements from PubChem BioAssay (NCI).

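Tested at 5 concentrations; 48 h exposure; 96-well plates; endpoints linearly interpolated, else capped at highest concentration. GI50 is the concentration that inhibits growth by half. TGI denotes the concentration required for complete inhibition of growth.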 Some results are limits rather than exact numbers.

Test systems include 786-0 renal; COLO 205 colon; HCT-116 colon; IGROV1 ovarian; K-562 leukemia; PC-3 prostate; SK-MEL-2 melanoma; U251 CNS; CCRF-CEM leukemia; SR leukemia.
Holding throughout (test): NCI tumour cell line growth inhibition, 48 h

In the case of `CO/N=C(\C)c1ccc(Nc2cc(-c3ccccc3)nc3ccc(OC)cc23)cc1`, the GI50 in the assay on 786-0 renal was 2.17 µM; with COLO 205 colon it was 7.02 µM; in the assay with HCT-116 colon it was 1.76 µM; with IGROV1 ovarian it was 4.56 µM; in the assay on K-562 leukemia, 5.42 µM; in the assay on PC-3 prostate, 4.17 µM. For the same compound, the GI50 with SK-MEL-2 melanoma was 6.27 µM; in the assay on U251 CNS, 2.05 µM. Besides, the TGI with 786-0 renal was 4.5 µM; with COLO 205 colon it was above 100 µM; with HCT-116 colon, 3.77 µM; in the assay with IGROV1 ovarian it was above 100 µM; with K-562 leukemia, above 100 µM; with PC-3 prostate, 16.2 µM. The TGI with SK-MEL-2 melanoma was above 100 µM; in the assay with U251 CNS, 4.79 µM.

In the case of `O=C(c1ccccc1)C1OC1c1ccc([N+](=O)[O-])cc1` (configuration not stated), the GI50 in the assay on 786-0 renal was 17.7 µM; in the assay on CCRF-CEM leukemia, 2.89 µM; with COLO 205 colon, 12.9 µM; with HCT-116 colon, 3.17 µM; in the assay with IGROV1 ovarian it was 3.01 µM; in the assay on PC-3 prostate, 9.9 µM. Moreover, the GI50 with SK-MEL-2 melanoma is 5.88 µM; in the assay on U251 CNS, 9.86 µM. Also, the TGI was 70.7 µM with 786-0 renal; above 100 µM in the assay on CCRF-CEM leukemia; 30.4 µM in the assay on COLO 205 colon; 12.6 µM with HCT-116 colon; 11.6 µM in the assay on IGROV1 ovarian; above 100 µM in the assay on PC-3 prostate. The TGI in the assay with SK-MEL-2 melanoma is 34.9 µM; in the assay with U251 CNS, above 100 µM.

For `C=CC(=O)Nc1cc(C)ccc1Nc1nc(Nc2cc(OC)ncc2C)ncc1C(F)(F)F`, the GI50 was 0.692 µM with 786-0 renal; 3.73 µM in the assay with CCRF-CEM leukemia; 0.0555 µM in the assay on COLO 205 colon; 0.256 µM in the assay with HCT-116 colon; 0.244 µM with IGROV1 ovarian; 2.56 µM with K-562 leukemia. Moreover, the GI50 with PC-3 prostate was 2.18 µM; in the assay on SK-MEL-2 melanoma, 0.313 µM; in the assay with U251 CNS it was 0.758 µM. Besides, the TGI is above 100 µM in the assay on 786-0 renal; above 100 µM with CCRF-CEM leukemia; 1.48 µM with COLO 205 colon; 1.31 µM in the assay on HCT-116 colon; 1.25 µM in the assay with IGROV1 ovarian; above 100 µM with K-562 leukemia. Also, the TGI with PC-3 prostate was above 100 µM; with SK-MEL-2 melanoma, 1.85 µM; in the assay with U251 CNS it was above 100 µM.

On to `C/C(=N\NS(=O)(=O)c1ccc(C)cc1)P(=O)(O)O`, for which the TGI with 786-0 renal, with COLO 205 colon, in the assay on HCT-116 colon, in the assay with IGROV1 ovarian, in the assay on K-562 leukemia and in the assay on PC-3 prostate was above 100 µM each time. In addition, the TGI in the assay with SK-MEL-2 melanoma and with U251 CNS was above 100 µM throughout.

For `Cc1cccc(C)c1NC(=O)C1C(=O)N(c2c(C)cccc2C)C(=O)/C1=N\N` (configuration not stated), the TGI in the assay on 786-0 renal, in the assay on CCRF-CEM leukemia, in the assay with COLO 205 colon, in the assay on HCT-116 colon, in the assay with IGROV1 ovarian and in the assay with K-562 leukemia was above 100 µM each time. The TGI in the assay on SK-MEL-2 melanoma, in the assay with SR leukemia and with U251 CNS was above 100 µM each time.

For the compound `COc1cc(N(C)C)c(OC)cc1/C=C\c1ccnc2ccccc12`, the TGI is above 10 µM in the assay on 786-0 renal; 9.41 µM with CCRF-CEM leukemia; above 10 µM with COLO 205 colon; above 10 µM with HCT-116 colon; above 10 µM in the assay with IGROV1 ovarian; above 10 µM in the assay with K-562 leukemia. For the same compound, the TGI with PC-3 prostate is above 10 µM; in the assay on SK-MEL-2 melanoma, 8.03 µM; with U251 CNS, above 10 µM.

On to `CSc1nc(NC2OC(COC(C)=O)C(OC(C)=O)C(OC(C)=O)C2OC(C)=O)c2c(n1)OCC2=O` (configuration not stated), for which the TGI with 786-0 renal, with CCRF-CEM leukemia, in the assay on COLO 205 colon, in the assay with HCT-116 colon, with IGROV1 ovarian and in the assay on K-562 leukemia was above 100 µM each time. Also, the TGI in the assay with SK-MEL-2 melanoma, in the assay on SR leukemia and with U251 CNS was above 100 µM throughout.

Regarding `COC(=O)c1cc(O)c2cc3c(cc2c1-c1cc(OC)c(OC)c(OC)c1)OCO3`, the GI50 in the assay with 786-0 renal is 6.23 µM; in the assay on COLO 205 colon, 2.77 µM; in the assay with HCT-116 colon it was 0.604 µM; in the assay with IGROV1 ovarian, 0.91 µM; with PC-3 prostate, 2.01 µM; in the assay on SK-MEL-2 melanoma it was 0.4 µM. In the assay on U251 CNS, the GI50 is 0.577 µM. Besides, the TGI with 786-0 renal is above 100 µM; in the assay on COLO 205 colon it was above 100 µM; in the assay with HCT-116 colon, above 100 µM; in the assay with IGROV1 ovarian it was above 100 µM; in the assay on PC-3 prostate, above 100 µM; in the assay on SK-MEL-2 melanoma it was 6.21 µM. In the assay with U251 CNS, this compound gave a TGI above 100 µM.

Regarding `Cn1cnc([N+](=O)[O-])c1Sc1nccn1-c1cccc2ccccc12`, the TGI with 786-0 renal is above 100 µM; with CCRF-CEM leukemia it was 68.5 µM; in the assay with COLO 205 colon, 30.3 µM; in the assay with HCT-116 colon, 60.3 µM; in the assay on IGROV1 ovarian it was above 100 µM; with K-562 leukemia, above 100 µM. Besides, the TGI in the assay with SK-MEL-2 melanoma was 37.5 µM; in the assay on SR leukemia, 50.5 µM; with U251 CNS, above 100 µM.

Turning to `COC(=O)C(C(=O)OC)C1CCCC(=O)C1` (configuration not stated), the TGI in the assay on 786-0 renal, in the assay on CCRF-CEM leukemia, in the assay with COLO 205 colon, in the assay with HCT-116 colon, in the assay with IGROV1 ovarian and with K-562 leukemia was above 100 µM throughout. The TGI with SK-MEL-2 melanoma was 0.503 µM; in the assay on SR leukemia, above 100 µM; in the assay with U251 CNS, above 100 µM.

On to `O=C(O)CCC(N=Cc1nc(-c2ccccc2)oc1O)C(=O)O` (configuration not stated), for which the TGI in the assay with 786-0 renal, in the assay on CCRF-CEM leukemia, with COLO 205 colon, in the assay on HCT-116 colon, in the assay on IGROV1 ovarian and in the assay with K-562 leukemia was above 100 µM each time. Also, the TGI in the assay with SK-MEL-2 melanoma, with SR leukemia and in the assay with U251 CNS was above 100 µM each time.

Consider `Cn1c2c(c3ccc([N+](=O)[O-])cc3c1=O)C(=O)c1ccccc1-2`, for which the GI50 with 786-0 renal, in the assay on CCRF-CEM leukemia, in the assay with COLO 205 colon, in the assay on HCT-116 colon, in the assay on IGROV1 ovarian and in the assay with PC-3 prostate was above 100 µM each time. Further, the GI50 in the assay on SK-MEL-2 melanoma and in the assay on U251 CNS was above 100 µM each time. The TGI in the assay on 786-0 renal, in the assay on CCRF-CEM leukemia, in the assay on COLO 205 colon, in the assay with HCT-116 colon, in the assay with IGROV1 ovarian and with PC-3 prostate was above 100 µM each time. In addition, the TGI in the assay with SK-MEL-2 melanoma and with U251 CNS was above 100 µM in each case.
